{"source": "patent US9226897B2", "about": "“Self-assembling nanoparticles for the release of bisphosphonates in the treatment of human cancers” (Istituti Fisioterapici Ospitalieri, priority 2010, dated 2016)", "key": {"[1]": {"tested_on": "PC3", "assay": "MTT proliferation assay, PC3 prostate cancer cells", "assay_type": "cell-based", "details": "Homo sapiens, PC-3, 72 h, read-out: IC50 (50% inhibitory concentration), growth inhibition", "method": "(§1) Human melanoma cells (M14) and doxorubicin resistant cells (M14+) were provided by Prof. G. Arancia form the National Institute of Health of Rome. […] Proliferation of human cancer cell lines was performed in the presence of increasing concentrations of different drugs by MTT assay as previously described by Caraglia et al. (Oncogene 2004).\n(§2) It was studied the effect of increasing concentrations of ZOL encapsulated in pre- and post-PLCaP NPs on growth inhibition of different human cancer cell lines, by MTT assay. In Table 2, the IC50 (50% inhibitory concentration) values of ZOL, free or encapsulated in pre- or post-PLCaP NPs, in the different cell lines analysed after 72 h, are reported. […] Moreover, when using ZOL-encapsulating NPs, we found a potentiation factor (PF)>1.0 in all tested cell lines, if compared with the free ZOL. […] In particular, on MCF7, pre-PLCaPZ NPs caused an about 12-fold potentiation of ZOL-induced cytotoxicity, while a lower effect (about 8-fold) was found with post-PLCaP NPs."}, "[2]": {"tested_on": "PC-3 cells", "assay": "In vivo antitumoral activity on prostate cancer, PC-3 xenograft in nude mice", "design": "species or system CD-1 nude (nu/nu) mice", "details": "PC-3 tumors in nude mice, 20 μg ZOL i.v. three times a week for three weeks", "experimental": "CD-1 nude (nu/nu) mice, 6-8 weeks old were purchased from Charles River Laboratories (Milano, Italy).\nMice have been acclimated for one week before to be injected with tumor cells. Mice were injected intramuscularly with tumor cells at 3×10^6 cells/mouse in 200 μl of PBS. Six days after, a tumor mass of about 0.3 cm^3 in diameter was evident, mice were randomized in four groups. Six mice/group were treated with ZOL free or NP containing ZOL for 3 consecutive weeks. Tumor mass was calculated three times a week from caliper measurements by using the formula π/6 AB, where A is the major diameter and B is the minor diameter, corresponding to tumor mass (Sommer K. et al. International Journal of Oncology 2001). Toxicity was evaluating by measuring the body weight two times a week. Student's t test was used for statistical comparison of differences.\nAs control, a group of mice was treated with NP not containing ZOL, to evaluate the potential antitumoral effects. Mice were treated three times a week for three consecutive weeks. Antitumor efficacy of treatments was assessed by the following end-points: a) percent tumor weight inhibition (TWI %), calculated as [1-(mean tumor weight of treated mice/mean tumor weight of controls)]×100; b) tumor growth delay, evaluated as T−C, where T and C are the median times for treated (T) and untreated tumors (C), respectively, to achieve equivalent size."}, "[3]": {"tested_on": "DU145", "assay": "MTT proliferation assay, DU145 prostate cancer cells", "assay_type": "cell-based", "details": "Homo sapiens, DU-145, 72 h, read-out: IC50 (50% inhibitory concentration), growth inhibition", "method": "as §1, §2"}, "[4]": {"details": "cited from earlier work"}, "[5]": {"tested_on": "MCF7", "assay": "MTT proliferation assay, MCF7 breast cancer cells", "assay_type": "cell-based", "details": "Homo sapiens, 72 h, read-out: IC50 (50% inhibitory concentration), growth inhibition", "method": "as §1, §2"}, "[6]": {"tested_on": "BX-PC3", "assay": "MTT proliferation assay, BX-PC3 pancreas cancer cells", "assay_type": "cell-based", "details": "Homo sapiens, BXPC-3, 72 h, read-out: IC50 (50% inhibitory concentration), growth inhibition", "method": "as §1, §2"}, "[7]": {"tested_on": "KB", "assay": "MTT proliferation assay, KB head/neck cancer cells", "assay_type": "cell-based", "details": "Homo sapiens, 72 h, read-out: IC50 (50% inhibitory concentration), growth inhibition", "method": "as §1, §2"}, "[8]": {"tested_on": "DOX", "assay": "MTT proliferation assay, DOX multiple myeloma cells", "assay_type": "cell-based", "details": "Homo sapiens, Multiple myeloma cell, 72 h, read-out: IC50 (50% inhibitory concentration), growth inhibition", "method": "as §1, §2"}, "[9]": {"tested_on": "MDA-MB468", "assay": "MTT proliferation assay, MDA-MB468 breast cancer cells", "assay_type": "cell-based", "details": "Homo sapiens, MDA-MB-468, 72 h, read-out: IC50 (50% inhibitory concentration), growth inhibition", "method": "as §1, §2"}, "[10]": {"tested_on": "Panc", "assay": "MTT proliferation assay, Panc pancreas cancer cells", "assay_type": "cell-based", "details": "Homo sapiens, 72 h, read-out: IC50 (50% inhibitory concentration), growth inhibition", "method": "as §1, §2"}, "[11]": {"tested_on": "H1355", "assay": "MTT proliferation assay, H1355 lung cancer cells", "assay_type": "cell-based", "details": "Homo sapiens, NCI-H1355, 72 h, read-out: IC50 (50% inhibitory concentration), growth inhibition", "method": "as §1, §2"}, "[12]": {"tested_on": "CG5", "assay": "MTT proliferation assay, CG5 breast cancer cells", "assay_type": "cell-based", "details": "Homo sapiens, 72 h, read-out: IC50 (50% inhibitory concentration), growth inhibition", "method": "as §1, §2"}, "[13]": {"tested_on": "RPMI", "assay": "MTT proliferation assay, RPMI multiple myeloma cells", "assay_type": "cell-based", "details": "Homo sapiens, Multiple myeloma cell, 72 h, read-out: IC50 (50% inhibitory concentration), growth inhibition", "method": "as §1, §2"}, "[14]": {"tested_on": "MIA PaCa", "assay": "MTT proliferation assay, MIA PaCa pancreas cancer cells", "assay_type": "cell-based", "details": "Homo sapiens, MIA PaCa-2, 72 h, read-out: IC50 (50% inhibitory concentration), growth inhibition", "method": "as §1, §2"}, "[15]": {"tested_on": "OPM2", "assay": "MTT proliferation assay, OPM2 multiple myeloma cells", "assay_type": "cell-based", "details": "Homo sapiens, OPM-2, 72 h, read-out: IC50 (50% inhibitory concentration), growth inhibition", "method": "as §1, §2"}, "[16]": {"tested_on": "KMS", "assay": "MTT proliferation assay, KMS multiple myeloma cells", "assay_type": "cell-based", "details": "Homo sapiens, Multiple myeloma cell, 72 h, read-out: IC50 (50% inhibitory concentration), growth inhibition", "method": "as §1, §2"}, "[17]": {"details": "ZOL 4 mg intravenous over 15 min"}}}
{"smiles": "O=P(O)(O)C(O)(Cn1ccnc1)P(=O)(O)O", "note": "[free ZOL, zoledronic acid]", "values": [{"measurement": "IC50", "setting": "[1]", "value": 12.5, "unit": "µM"}, {"measurement": "TWI (%), percent tumor weight inhibition", "setting": "[2]; at the nadir of the effect", "value": 17, "unit": "%"}, {"measurement": "T-C (days), tumor growth delay", "setting": "[2]; median times to equivalent size", "value": 5, "unit": "days"}, {"measurement": "IC50", "setting": "[3]", "value": 25, "unit": "µM"}, {"measurement": "distribution plasma half-life (t1/2)", "setting": "[4]; [17]", "value": 0.25, "unit": "h"}, {"measurement": "elimination plasma half-life (t1/2β)", "setting": "[4]; [17]", "value": 1.75, "unit": "h"}, {"measurement": "Cmax", "setting": "[4]; ZOL 4 mg intravenous over 15 min, read-out: maximum plasma concentration (Cmax)", "value": "~1000", "unit": "nM"}, {"measurement": "initially administered dose retained in the skeleton", "setting": "[4]; in vivo", "value": "approximately 55%"}, {"measurement": "IC50", "setting": "[5]", "value": 120, "unit": "µM"}, {"measurement": "IC50", "setting": "[6]", "value": 12.3, "unit": "µM"}, {"measurement": "IC50", "setting": "[7]", "value": 22.8, "unit": "µM"}, {"measurement": "IC50", "setting": "[8]", "value": 41.9, "unit": "µM"}, {"measurement": "IC50", "setting": "[9]", "value": 28.4, "unit": "µM"}, {"measurement": "IC50", "setting": "[10]", "value": 32, "unit": "µM"}, {"measurement": "IC50", "setting": "[11]", "value": 65, "unit": "µM"}, {"measurement": "IC50", "setting": "[12]", "value": 74, "unit": "µM"}, {"measurement": "IC50", "setting": "[13]", "value": 120, "unit": "µM"}, {"measurement": "IC50", "setting": "[14]", "value": 55, "unit": "µM"}, {"measurement": "IC50", "setting": "[15]", "value": 83, "unit": "µM"}, {"measurement": "IC50", "setting": "[16]", "value": 30, "unit": "µM"}]}
